Reference: patent publication US11440915B2, “Triazolo-azepine derivatives” (Hoffmann-La Roche Inc., priority 2017, dated 2022)
pEC50: −log10 of the molar value.

biological target: γ-secretase (Homo sapiens (Human), UniProt P49768); experiment: Cellular γ-secretase assay (inhibition of Aβ42 secretion, AlphaLisa); type: cell-based; conditions: human neuroglioma H4 cells overexpressing human APP695 Swedish double mutation, 24 hr compound incubation
Method: Human neuroglioma H4 cells overexpressing human APP695 with the Swedish double mutation (K595N/M596L) were plated at 30,000 cells/well/100 μl in 96-well plates in IMDM media containing 10% FCS, 0.2 mg/l Hygromycin B and incubated at 37° C., 5% CO2.
3-4 hr post plating, compounds are a diluted in media and 50 μl is added as 1.5-fold concentrate to achieve the final concentration. Compound incubation is performed for 24 hr. Final doses typically range from 4 μM down to 0.001 μM in half-log steps resulting in a eight point dose response curve.
Appropriate controls using vehicle only and reference compound were applied to this assay. The final concentration of Me2SO was 0.4%.
After incubation at 37° C., 5% CO2, the supernatant was subjected to quantification of secreted Aβ42 by the means of an AlphaLisa assay kit (Human Amyloid beta 1-42 Kit: Cat #AL203C, Perkin Elmer). 20 μl of the cell culture supernatant was transferred to an assay plate. Then 10 μl of a mixture of the AlphaLisa coupled capture antibody and the biotinylated detection antibody was added and incubated for 3 hours at room temperature while softly shaking the assay plate. After a further addition of 20 μl of the Donor beads the assay plate was incubated for 30 min at room temperature and constant shaking without exposure to direct light. The assay plate was then read on a Paradigm AlphaLisa Reader using the build-in program with excitation at 680 nm and emission at 570 nm.
The measured signals were then used to calculate IC50 values for inhibition of Aβ42 secretion by nonlinear regression fit analysis using XLfit 5.3 software (IDBS).

SMILES | pEC50
Cc1cn(C23CC(Nc4nc5n(n4)CCCC[C@@H]5c4cccc(Cl)c4)(C2)C3)cn1 [Example 1, (9R)-9-(3-chlorophenyl)-N-[3-(4-methylimidazol-1-yl)-1-bicyclo[1.1.1]pentanyl]-6,7,8,9-tetrahydro-5H-[1,2,4]triazolo[1,5-a]azepin-2-amine] | 7.82
Cc1cn(C23CC(Nc4nc5n(n4)CCCC[C@H]5c4cccc(Cl)c4)(C2)C3)cn1 [Example 2, (9S)-9-(3-chlorophenyl)-N-[3-(4-methylimidazol-1-yl)-1-bicyclo[1.1.1]pentanyl]-6,7,8,9-tetrahydro-5H-[1,2,4]triazolo[1,5-a]azepin-2-amine] | 7.80
Cc1cn(C23CC(Nc4nc5n(n4)CCCC[C@@H]5c4ccc(F)cc4)(C2)C3)cn1 [Example 3, (9R)-9-(4-fluorophenyl)-N-[3-(4-methylimidazol-1-yl)-1-bicyclo[1.1.1]pentanyl]-6,7,8,9-tetrahydro-5H-[1,2,4]triazolo[1,5-a]azepin-2-amine] | 7.60
Cc1cn(C23CC(Nc4nc5n(n4)CCCC[C@H]5c4ccc(F)cc4)(C2)C3)cn1 [Example 4, (9S)-9-(4-fluorophenyl)-N-[3-(4-methylimidazol-1-yl)-1-bicyclo[1.1.1]pentanyl]-6,7,8,9-tetrahydro-5H-[1,2,4]triazolo[1,5-a]azepin-2-amine] | 7.51
Cc1cn(C23CC(Nc4nc5n(n4)CCCC[C@@H]5c4ccc(Cl)cc4)(C2)C3)cn1 [Example 5, (9R)-9-(4-chlorophenyl)-N-[3-(4-methylimidazol-1-yl)-1-bicyclo[1.1.1]pentanyl]-6,7,8,9-tetrahydro-5H-[1,2,4]triazolo[1,5-a]azepin-2-amine] | 7.59
Cc1cn(C23CC(Nc4nc5n(n4)CCCC[C@H]5c4ccc(Cl)cc4)(C2)C3)cn1 [Example 6, (9S)-9-(4-chlorophenyl)-N-[3-(4-methylimidazol-1-yl)-1-bicyclo[1.1.1]pentanyl]-6,7,8,9-tetrahydro-5H-[1,2,4]triazolo[1,5-a]azepin-2-amine] | 7.64
Cc1cn(C23CCC(Nc4nc5n(n4)CCCC[C@@H]5c4cc(F)cc(Cl)c4)(CC2)CC3)cn1 [Example 7, (9R)-9-(3-chloro-5-fluoro-phenyl)-N-[4-(4-methylimidazol-1-yl)-1-bicyclo[2.2.2]octanyl]-6,7,8,9-tetrahydro-5H-[1,2,4]triazolo[1,5-a]azepin-2-amine] | 7.82
Cc1cn(C23CCC(Nc4nc5n(n4)CCCC[C@H]5c4cc(F)cc(Cl)c4)(CC2)CC3)cn1 [Example 8, (9S)-9-(3-chloro-5-fluoro-phenyl)-N-[4-(4-methylimidazol-1-yl)-1-bicyclo[2.2.2]octanyl]-6,7,8,9-tetrahydro-5H-[1,2,4]triazolo[1,5-a]azepin-2-amine] | 7.85
Cc1cn(C23CC(Nc4nc5n(n4)CCCC[C@@H]5c4cc(F)cc(Cl)c4)(C2)C3)cn1 [Example 9, (9R)-9-(3-chloro-5-fluoro-phenyl)-N-[3-(4-methylimidazol-1-yl)-1-bicyclo[1.1.1]pentanyl]-6,7,8,9-tetrahydro-5H-[1,2,4]triazolo[1,5-a]azepin-2-amine] | 8.10
Cc1cn(C23CC(Nc4nc5n(n4)CCCC[C@H]5c4cc(F)cc(Cl)c4)(C2)C3)cn1 [Example 10, (9S)-9-(3-chloro-5-fluoro-phenyl)-N-[3-(4-methylimidazol-1-yl)-1-bicyclo[1.1.1]pentanyl]-6,7,8,9-tetrahydro-5H-[1,2,4]triazolo[1,5-a]azepin-2-amine] | 7.85
Cc1cn(C23CCC(Nc4nc5n(n4)CCCC[C@@H]5c4ccc(F)c(F)c4)(CC2)CC3)cn1 [Example 11, (9R)-9-(3,4-difluorophenyl)-N-[4-(4-methylimidazol-1-yl)-1-bicyclo[2.2.2]octanyl]-6,7,8,9-tetrahydro-5H-[1,2,4]triazolo[1,5-a]azepin-2-amine] | 7.41
Cc1cn(C23CCC(Nc4nc5n(n4)CCCC[C@H]5c4ccc(F)c(F)c4)(CC2)CC3)cn1 [Example 12, (9S)-9-(3,4-difluorophenyl)-N-[4-(4-methylimidazol-1-yl)-1-bicyclo[2.2.2]octanyl]-6,7,8,9-tetrahydro-5H-[1,2,4]triazolo[1,5-a]azepin-2-amine] | 7.31
Cc1cn(C23CC(Nc4nc5n(n4)CCCC[C@@H]5c4ccc(F)c(F)c4)(C2)C3)cn1 [Example 13, (9R)-9-(3,4-difluorophenyl)-N-[3-(4-methylimidazol-1-yl)-1-bicyclo[1.1.1]pentanyl]-6,7,8,9-tetrahydro-5H-[1,2,4]triazolo[1,5-a]azepin-2-amine] | 7.36
Cc1cn(C23CC(Nc4nc5n(n4)CCCC[C@H]5c4ccc(F)c(F)c4)(C2)C3)cn1 [Example 14, (9S)-9-(3,4-difluorophenyl)-N-[3-(4-methylimidazol-1-yl)-1-bicyclo[1.1.1]pentanyl]-6,7,8,9-tetrahydro-5H-[1,2,4]triazolo[1,5-a]azepin-2-amine] | 7.57
Cc1cn(C23CC(Nc4nc5n(n4)CCCC[C@@H]5c4ccccc4F)(C2)C3)cn1 [Example 15, (9R)-9-(2-fluorophenyl)-N-[3-(4-methylimidazol-1-yl)-1-bicyclo[1.1.1]pentanyl]-6,7,8,9-tetrahydro-5H-[1,2,4]triazolo[1,5-a]azepin-2-amine] | 7.42
Cc1cn(C23CC(Nc4nc5n(n4)CCCC[C@H]5c4ccccc4F)(C2)C3)cn1 [Example 16, (9S)-9-(2-fluorophenyl)-N-[3-(4-methylimidazol-1-yl)-1-bicyclo[1.1.1]pentanyl]-6,7,8,9-tetrahydro-5H-[1,2,4]triazolo[1,5-a]azepin-2-amine] | 7.72
Cc1cn(C23CCC(Nc4nc5n(n4)CCCC[C@@H]5c4ccccc4F)(CC2)CC3)cn1 [Example 17, (9R)-9-(2-fluorophenyl)-N-[4-(4-methylimidazol-1-yl)-1-bicyclo[2.2.2]octanyl]-6,7,8,9-tetrahydro-5H-[1,2,4]triazolo[1,5-a]azepin-2-amine] | 7.25
Cc1cn(C23CCC(Nc4nc5n(n4)CCCC[C@H]5c4ccccc4F)(CC2)CC3)cn1 [Example 18, (9S)-9-(2-fluorophenyl)-N-[4-(4-methylimidazol-1-yl)-1-bicyclo[2.2.2]octanyl]-6,7,8,9-tetrahydro-5H-[1,2,4]triazolo[1,5-a]azepin-2-amine] | 7.21
Cc1cn(C23CC(Nc4nc5n(n4)CCCC[C@@H]5c4ccc(F)c(F)c4F)(C2)C3)cn1 [Example 19, (9R)-N-[3-(4-methylimidazol-1-yl)-1-bicyclo[1.1.1]pentanyl]-9-(2,3,4-trifluorophenyl)-6,7,8,9-tetrahydro-5H-[1,2,4]triazolo[1,5-a]azepin-2-amine] | 7.85
Cc1cn(C23CC(Nc4nc5n(n4)CCCC[C@H]5c4ccc(F)c(F)c4F)(C2)C3)cn1 [Example 20, (9S)-N-[3-(4-methylimidazol-1-yl)-1-bicyclo[1.1.1]pentanyl]-9-(2,3,4-trifluorophenyl)-6,7,8,9-tetrahydro-5H-[1,2,4]triazolo[1,5-a]azepin-2-amine] | 8.00
Cc1cn(C23CCC(Nc4nc5n(n4)CCCC[C@@H]5c4ccc(F)c(F)c4F)(CC2)CC3)cn1 [Example 21, (9R)-N-[4-(4-methylimidazol-1-yl)-1-bicyclo[2.2.2]octanyl]-9-(2,3,4-trifluorophenyl)-6,7,8,9-tetrahydro-5H-[1,2,4]triazolo[1,5-a]azepin-2-amine] | 7.37
Cc1cn(C23CCC(Nc4nc5n(n4)CCCC[C@H]5c4ccc(F)c(F)c4F)(CC2)CC3)cn1 [Example 22, (9S)-N-[4-(4-methylimidazol-1-yl)-1-bicyclo[2.2.2]octanyl]-9-(2,3,4-trifluorophenyl)-6,7,8,9-tetrahydro-5H-[1,2,4]triazolo[1,5-a]azepin-2-amine] | 7.57
